The values below are quoted from earlier work in US20210299202A1, “FORMULATION OF C[…]” (CARDINAL ADVISORY LIMITED, priority 2018, published 2021).

For data set [1] the following is noted: smoked, pulmonary absorption.
The conditions of data set [2]: oral ingestion.

In the case of `CCCCCc1cc(O)c2c(c1)OC(C)(C)[C@@H]1CCC(C)=C[C@@H]21` [THC, delta-9-tetrahydrocannabinol], in data set [1], the “time to peak plasma THC concentration” value is 6 to 10 min. Besides, the “time to peak plasma concentration” value in data set [2] is 2 to 6 h.
